According to patent US20240174639A1, “PYRIDINE DERIVATIVES USEFUL AS HCN2 MODULATORS” (King's College London, priority 2021, published 2024):
Structures can show the parent of a compound that is named as a salt.

Tests used:
HCN4 = biological target: T1, HCN4 (Homo sapiens, UniProt Q9Y3Q4); experiment: HCN4 assay using PatchXpress 7000A (Example 50A); assay type: cell-based; conditions: PatchXpress protocol (PX)
T1 sequence (Q9Y3Q4 1-1203): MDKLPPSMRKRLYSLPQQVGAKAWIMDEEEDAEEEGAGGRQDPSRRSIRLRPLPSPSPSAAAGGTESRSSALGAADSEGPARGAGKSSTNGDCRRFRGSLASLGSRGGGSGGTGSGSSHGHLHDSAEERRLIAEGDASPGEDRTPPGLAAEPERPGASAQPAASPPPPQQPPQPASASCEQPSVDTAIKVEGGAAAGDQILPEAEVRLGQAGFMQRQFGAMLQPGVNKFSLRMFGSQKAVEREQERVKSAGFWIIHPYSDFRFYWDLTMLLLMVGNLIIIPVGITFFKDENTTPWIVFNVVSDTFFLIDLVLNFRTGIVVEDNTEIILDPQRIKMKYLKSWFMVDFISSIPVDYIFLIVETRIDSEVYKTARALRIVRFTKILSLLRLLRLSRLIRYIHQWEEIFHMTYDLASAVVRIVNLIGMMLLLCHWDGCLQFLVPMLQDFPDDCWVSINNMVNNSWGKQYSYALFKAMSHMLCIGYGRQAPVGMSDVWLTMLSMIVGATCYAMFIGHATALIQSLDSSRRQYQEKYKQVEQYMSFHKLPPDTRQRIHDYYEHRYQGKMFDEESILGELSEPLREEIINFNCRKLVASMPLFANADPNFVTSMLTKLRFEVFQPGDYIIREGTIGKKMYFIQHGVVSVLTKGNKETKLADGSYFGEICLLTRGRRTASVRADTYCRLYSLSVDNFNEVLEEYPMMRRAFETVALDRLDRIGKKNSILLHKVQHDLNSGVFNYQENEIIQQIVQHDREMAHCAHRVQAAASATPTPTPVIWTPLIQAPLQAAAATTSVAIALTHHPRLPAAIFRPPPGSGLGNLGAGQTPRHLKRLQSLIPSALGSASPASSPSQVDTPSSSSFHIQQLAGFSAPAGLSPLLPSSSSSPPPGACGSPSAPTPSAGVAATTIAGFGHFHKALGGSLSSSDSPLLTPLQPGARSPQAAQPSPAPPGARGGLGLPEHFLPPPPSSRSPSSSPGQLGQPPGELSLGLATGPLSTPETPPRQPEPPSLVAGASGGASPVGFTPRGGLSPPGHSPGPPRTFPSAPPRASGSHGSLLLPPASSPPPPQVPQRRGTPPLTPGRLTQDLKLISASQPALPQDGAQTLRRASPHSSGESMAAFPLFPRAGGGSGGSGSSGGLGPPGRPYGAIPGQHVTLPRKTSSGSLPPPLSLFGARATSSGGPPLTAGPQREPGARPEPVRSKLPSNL
Protocol: (§1) Solutions for recording HON currents were:
For HCN4, the pulse protocol involved stepping from a holding potential of −30 mV to −130 mV (see FIG. 1B) for 4 seconds to evoke the current.
(§2) The peak inward current measured at the end of the pulse to −110 mV (HCN1 and HCN2) or −130 mV (HCN4) was measured and any leak current subtracted to calculate the HCN current. The HCN current amplitude was measured after each control or compound addition and normalized to the control amplitude (Control A).
(§3) All experiments were performed at room temperature (approximately 22° C.).
(§4) Each test compound concentration was applied to the cell for seven (7) minutes, at which point the next cumulative concentration was applied. 3 mM CsCl was applied to each cell for 2 minutes at the end of each experiment (Control B) to determine 100% inhibition level of the HCN current.

HCN2 = biological target: T2, HCN2 (Homo sapiens, UniProt Q9UL51); experiment: HCN2 assay using PatchXpress 7000A (Example 50A); assay type: cell-based; conditions: PatchXpress protocol (PX)
T2 sequence (Q9UL51 1-889): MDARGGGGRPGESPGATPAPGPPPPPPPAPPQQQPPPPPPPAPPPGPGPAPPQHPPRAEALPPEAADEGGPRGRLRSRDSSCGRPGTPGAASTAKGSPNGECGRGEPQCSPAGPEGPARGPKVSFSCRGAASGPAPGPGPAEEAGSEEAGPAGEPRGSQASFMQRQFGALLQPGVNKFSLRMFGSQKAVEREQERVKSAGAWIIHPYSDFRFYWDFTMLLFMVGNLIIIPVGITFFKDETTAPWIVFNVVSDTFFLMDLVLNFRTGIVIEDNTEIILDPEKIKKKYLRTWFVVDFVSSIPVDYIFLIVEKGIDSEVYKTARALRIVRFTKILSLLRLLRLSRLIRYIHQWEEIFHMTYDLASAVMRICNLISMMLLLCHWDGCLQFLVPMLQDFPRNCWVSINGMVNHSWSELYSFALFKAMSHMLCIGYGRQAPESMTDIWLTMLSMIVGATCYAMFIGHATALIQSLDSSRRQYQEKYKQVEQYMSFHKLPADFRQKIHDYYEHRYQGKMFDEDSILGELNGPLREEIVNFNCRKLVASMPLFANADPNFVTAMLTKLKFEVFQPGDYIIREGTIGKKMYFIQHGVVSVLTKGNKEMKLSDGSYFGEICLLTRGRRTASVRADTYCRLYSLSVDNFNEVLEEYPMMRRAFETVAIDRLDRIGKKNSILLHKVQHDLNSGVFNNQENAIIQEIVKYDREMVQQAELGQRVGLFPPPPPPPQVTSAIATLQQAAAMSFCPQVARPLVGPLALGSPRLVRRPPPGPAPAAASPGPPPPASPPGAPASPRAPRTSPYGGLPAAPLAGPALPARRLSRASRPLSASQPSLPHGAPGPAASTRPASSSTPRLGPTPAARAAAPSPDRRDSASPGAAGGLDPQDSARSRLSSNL
Text: as §1
For HCN1 and HCN2, the pulse protocol involved stepping from a holding potential of −30 mV to −110 mV (see FIG. 1A) for 2 seconds to evoke the current. The membrane voltage was then stepped back to −30 mV for a further 8 seconds. This sequence was evoked repeatedly every 10 seconds throughout the experiment, starting prior to drug (Control A) and during cumulative additions of 5 increasing compound concentrations, then finally a 100% inhibiting concentration of cesium chloride (CsCl, 3 mM).
as §2, §3, §4

SMILES	IC50 (HCN4) [µM]	IC50 (HCN2) [µM]
Cc1cc(F)cnc1C[C@H](N)c1ncccc1-n1ncc2ccccc21 [Example 26, (S)-1-[3-(1H-indazole-1-yl)pyridine-2-yl]-2-(5-fluoro-3-methyl-pyridine-2-yl)ethan-1-amine hydrochloride]	0.5	0.015
CN(C)C(=O)c1cccc(C[C@H](N)c2ncccc2-n2ncc3ccccc32)n1 [Example 8, (S)-6-{2-[3-(1H-ind-azol-1-yl)pyridine-2-yl]-2-aminoethyl}-N,N-dimethylpyridine-2-carboxamide hydro-chloride]	> 30	28.1
CS(=O)(=O)c1cccc(C[C@H](N)c2ncccc2-n2ncc3ccccc32)n1 [Example 49, (S)-1-[3-(1H-indazole-1-yl)pyridine-2-yl]-2-(6-methylsulfonyl-pyridine-2-yl)ethan-1-amine hydrochloride]		~10
CN(C)C(=O)c1ccc(F)c(C[C@H](N)c2ncccc2-n2ncc3ccccc32)n1 [Example 29, (S)-6-{2-[3-(1H-ind-azol-1-yl)pyridine-2-yl]-2-aminoethyl}-5-fluoro-N,N-dimethylpyridine-2-carboxamide hydro-chloride]		2.6
NC(=O)c1cccc(C[C@H](N)c2ncccc2-n2ncc3ccccc32)n1 [Example 9, (S)-6-{2-[3-(1H-ind-azol-1-yl)pyridine-2-yl]-2-aminoethyl}pyridine-2-carboxamide hydro-chloride]	> 30	17.3
N#Cc1ccc2c(cnn2-c2ccccc2[C@@H](N)Cc2ccccn2)c1 [Example 3, (S)-1-{2-[1-Amino-2-(pyridine-2-yl)ethyl]-phenyl}-1H-indazole-5-carbonitrile hydro-chloride]	> 30	3.5
NC(=O)c1ccc(F)c(C[C@H](N)c2ncccc2-n2ncc3ccccc32)n1 [Example 19, (S)-6-{2-[3-(1H-ind-azol-1-yl)pyridine-2-yl]-2-aminoethyl}-5-fluoropyridine-2-carboxamide hydro-chloride]		6.9
Cc1cccnc1C[C@H](N)c1ncccc1-n1ncc2ccccc21 [Example 16, (S)-1-[3-(1H-indazole-1-yl)pyridine-2-yl]-2-(3-methylpyridine-2-yl)ethan-1-amine hydrochloride]	2.1	0.13
N#Cc1nc(C[C@H](N)c2ncccc2-n2ncc3ccccc32)ccc1F [Example 22, (S)-6-{2-[3-(1H-ind-azol-1-yl)pyridine-2-yl]-2-aminoethyl}-3-fluoropyridine-2-carbonitrile hydro-chloride]	13.4	0.32
N[C@@H](Cc1cccc(OCCO)n1)c1ncccc1-n1ncc2ccccc21 [Example 13, (S)-2-[(6-{2-[3-(1H-Indazol-1-yl)pyridine-2-yl]-2-aminoethyl}-pyridine-2-yl)oxy]-ethan-1-ol hydro-chloride]		> 10
N[C@@H](Cc1cccc(CCO)n1)c1ncccc1-n1ncc2ccccc21 [Example 14, (S)-2-(6-{2-[3-(1H-Indazol-1-yl)pyridine-2-yl]-2-aminoethyl}-pyridine-2-yl)ethan-1-ol hydrochloride]		3.7
N#Cc1cccc(C[C@H](N)c2ncccc2-n2ncc3ccccc32)n1 [Example 6, (S)-6-{2-[3-(1H-ind-azol-1-yl)pyridine-2-yl]-2-aminoethyl}pyridine-2-carbonitrile hydro-chloride]	22.2	1.1
N[C@@H](Cc1ncccc1F)c1ncccc1-n1ncc2ccccc21 [Example 10, (S)-1-[3-(1H-indazole-1-yl)pyridine-2-yl]-2-(3-fluoropyridine-2-yl)ethan-1-amine hydrochloride]	4.2	0.08
Cc1ccc(F)c(C[C@H](N)c2ncccc2-n2ncc3ccccc32)n1 [Example 11, (S)-1-[3-(1H-indazole-1-yl)pyridine-2-yl]-2-(3-fluoro-6-methyl-pyridine-2-yl)ethan-1-amine hydrochloride]		0.16
N[C@@H](Cc1nc(CCO)ccc1F)c1ncccc1-n1ncc2ccccc21 [Example 24, (S)-2-(6-{2-[3-(1H-Indazol-1-yl)pyridine-2-yl]-2-aminoethyl}-5-fluoropyridine-2-yl)-ethan-1-ol hydrochloride]	19.2	
N[C@@H](Cc1ccccn1)c1ccccc1-n1ncc2cnccc21 [Example 7, (S)-1-[2-(1H-pyrazolo-[4,3-c]pyridine-1-yl)-phenyl]-2-(pyridine-2-yl)ethan-1-amine hydrochloride]	> 30	7
CCc1cccc(C[C@H](N)c2ncccc2-n2ncc3ccccc32)n1 [Example 15, (S)-1-[3-(1H-indazole-1-yl)pyridine-2-yl]-2-(6-ethylpyridine-2-yl)-ethan-1-amine hydro-chloride]	14.8	2.1
N[C@@H](Cc1cccc(-c2cn[nH]c2)n1)c1ncccc1-n1ncc2ccccc21 [Example 12, (S)-1-[3-(1H-indazole-1-yl)pyridine-2-yl]-2-[6-(1H-pyrazol-4-yl)-pyridine-2-yl)ethan-1-amine hydrochloride]		> 10
Cc1cccc(C[C@H](N)c2ncccc2-n2ncc3ccccc32)n1 [Example 5, (S)-1-[3-(1H-indazole-1-yl)pyridine-2-yl]-2-(6-methylpyridine-2-yl)ethan-1-amine hydrochloride]	> 30	1.9
N[C@@H](Cc1ncccc1F)c1ncccc1-n1ncc2cc(F)ccc21 [Example 28, (S)-1-[3-(5-Fluoro-1H-indazole-1-yl)pyridine-2-yl]-2-(3-fluoropyr- -idine-2-yl)ethan-1-amine hydrochloride]	> 30	1
N[C@@H](Cc1ccc(F)cn1)c1ncccc1-n1ncc2ccccc21 [Example 18, (S)-1-[3-(1H-indazole-1-yl)pyridine-2-yl]-2-(5-fluoropyridine-2-yl)-ethan-1-amine hydro-chloride]	11.7	0.5
NC(=O)c1nc(C[C@H](N)c2ncccc2-n2ncc3ccccc32)ccc1F [Example 27, (S)-6-{2-[3-(1H-ind-azol-1-yl)pyridine-2-yl]-2-aminoethyl}-3-fluoropyridine-2-carboxamide hydro-chloride]		> 10
